The source of these data is ChEMBL document CHEMBL6083283, “Discovery of Dual CDK6/BRD4 Inhibitor Inducing Apoptosis and Increasing the Sensitivity of Ferroptosis in Triple-Negative Breast Cancer” (J Med Chem, 2024).

For one series, the target named is CDK6/cyclin D3 (Homo sapiens, UniProt Q00534). The experiment in a line: Inhibition of full length recombinant human CDK6/CyclinD3 co-expressed by baculovirus in Sf9 insect cells using histone H1 as substrate by ADP-glo kinase assay.
Series [1] relates to MDA-MB-231. The experiment in a line: Antiproliferative activity against human MDA-MB-231 cells assessed as cell viability incubated for 72 hrs in presence of Palbociclib by MTT assay. The conditions noted are these: MDA-MB-231, 72 h. The series is classed as functional, cell-based.
The test system of series [2] is BT-549. Put plainly: Antiproliferative activity against human BT-549 cells assessed as cell viability incubated for 72 hrs in presence of Palbociclib by MTT assay. In kind it is functional, cell-based. The conditions noted are these: BT-549, 72 h.
Series [3] in a line: Antiproliferative activity against human MCF-10A cells assessed as cell viability incubated for 72 hrs in presence of Palbociclib by MTT assay. In kind it is toxicity, cell-based.
Series [4] concerns MDA-MB-231. Put plainly: Antitumor activity against human MDA-MB-231 cells xenografted in BALB/c nude mouse assessed as tumor growth inhibition at 50 mg/kg, ip administered for 21 days. Particulars: MDA-MB-231, 504 h, read-out: TGI.
In series [5] the test system is MDA-MB-231. Put plainly: cells. The conditions noted are these: Homo sapiens, MDA-MB-231, 72 h.
Description: Antiproliferative activity against human MDA-MB-231 cells assessed as cell viability incubated for 72 hrs by MTT assay
Series [6] deals with BT-549. Put plainly: cells. The conditions noted are these: Homo sapiens, BT-549, 72 h.
Description: Antiproliferative activity against human BT-549 cells assessed as cell viability incubated for 72 hrs by MTT assay
Series [7] is described as follows: in vitro. The conditions noted are these: human, MCF-10A cells.
Description: Antiproliferative activity against human MCF-10A cells assessed as cell viability incubated for 72 hrs by MTT assay
Series [8] in a line: in vitro. The conditions noted are these: human, liver microsomes.
Series [9] is described as follows: in vitro. The conditions noted are these: human, liver microsomes. This is another data set of the same source.
Description: Metabolic stability in human liver microsome assessed as intrinsic clearance
Series [10] concerns the target T1, Bromodomain-containing protein 2 (Homo sapiens, UniProt P25440).
Description: Inhibition of BRD2 BD1 (unknown origin)
The target in series [11] is T1, Bromodomain-containing protein 2. The source holds these as a separate data set.
Description: Inhibition of BRD2 BD2 (unknown origin)
Series [12] addresses CDK9/cyclin T1 (Homo sapiens) (UniProt O60563+P50750). The conditions noted are these: dose 500.0 nM.
Description: Inhibition of CDK9/cyclinT1 (unknown origin) at 500 nM relative to control

Chain of CDK6/cyclin D3 (P30281 whole entry): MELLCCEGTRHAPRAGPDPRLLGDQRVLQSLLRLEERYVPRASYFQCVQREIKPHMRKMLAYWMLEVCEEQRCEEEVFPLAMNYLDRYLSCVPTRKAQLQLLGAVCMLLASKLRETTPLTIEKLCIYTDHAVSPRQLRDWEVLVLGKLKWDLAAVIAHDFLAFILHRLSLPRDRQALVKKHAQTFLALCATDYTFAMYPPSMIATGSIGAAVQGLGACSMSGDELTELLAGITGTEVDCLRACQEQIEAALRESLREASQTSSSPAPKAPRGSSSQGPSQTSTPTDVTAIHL
Chain of CDK6/cyclin D3 (Q00534 whole entry): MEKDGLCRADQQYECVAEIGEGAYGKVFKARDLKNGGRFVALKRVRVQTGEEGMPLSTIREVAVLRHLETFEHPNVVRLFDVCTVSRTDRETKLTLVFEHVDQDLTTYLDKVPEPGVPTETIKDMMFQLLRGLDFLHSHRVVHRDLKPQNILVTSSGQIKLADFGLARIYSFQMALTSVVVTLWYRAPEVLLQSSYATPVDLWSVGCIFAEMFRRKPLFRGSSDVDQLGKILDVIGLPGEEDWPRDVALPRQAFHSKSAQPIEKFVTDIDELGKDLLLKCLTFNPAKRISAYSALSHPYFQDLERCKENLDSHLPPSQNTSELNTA
T1 sequence (P25440 whole entry): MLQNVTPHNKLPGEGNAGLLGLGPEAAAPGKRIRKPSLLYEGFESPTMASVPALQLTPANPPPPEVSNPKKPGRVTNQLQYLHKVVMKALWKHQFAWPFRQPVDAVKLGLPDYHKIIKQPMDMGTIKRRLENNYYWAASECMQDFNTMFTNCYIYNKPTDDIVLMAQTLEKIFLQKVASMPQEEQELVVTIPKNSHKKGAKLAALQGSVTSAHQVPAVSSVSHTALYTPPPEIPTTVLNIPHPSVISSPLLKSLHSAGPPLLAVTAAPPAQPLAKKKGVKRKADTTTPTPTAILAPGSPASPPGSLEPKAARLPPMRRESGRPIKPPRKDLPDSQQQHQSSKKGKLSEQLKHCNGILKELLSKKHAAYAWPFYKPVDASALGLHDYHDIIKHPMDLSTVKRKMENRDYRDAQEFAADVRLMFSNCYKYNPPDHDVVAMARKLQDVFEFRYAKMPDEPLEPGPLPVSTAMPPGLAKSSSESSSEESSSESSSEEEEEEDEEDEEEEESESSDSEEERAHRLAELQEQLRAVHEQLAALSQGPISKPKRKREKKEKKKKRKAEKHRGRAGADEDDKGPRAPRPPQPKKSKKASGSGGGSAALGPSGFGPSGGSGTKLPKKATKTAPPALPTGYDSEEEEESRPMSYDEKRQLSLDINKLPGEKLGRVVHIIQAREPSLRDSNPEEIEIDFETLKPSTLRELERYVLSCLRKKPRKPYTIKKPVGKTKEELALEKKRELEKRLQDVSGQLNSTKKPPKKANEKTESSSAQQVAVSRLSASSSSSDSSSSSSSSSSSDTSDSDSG

As for `COc1cc(OC)c2c(=O)[nH]c(-c3ccc(C(=O)N4CCCC(CNc5ncc6c(C)cc(=O)n(C7CCCC7)c6n5)C4)cc3)nc2c1` (stereo not drawn), the IC50 on CDK6/cyclin D3 is 297 nM.

As to `Cc1sc2c(c1C)C(c1ccc(Cl)cc1)=N[C@@H](CC(=O)OC(C)(C)C)c1nnc(C)n1-2`, the IC50 came out at 1720 nM in the series on MDA-MB-231 [1], 1050 nM with BT-549 [2], 6.44 µM with MDA-MB-231 [5] and 5.06 µM with BT-549 [6]. The IC50 at 72 h (in [3]; in “in vitro [7]”) was > 20 µM each time. The inhibition in vivo at 50 mg/kg with MDA-MB-231 [4] was determined as 37.6%. In addition, in “in vitro [8]”, the half-life amounted to 35.4 min. The same molecule displayed a microsomal CLint in the series “in vitro [9]” of 39.5 µL/min/mg.

In the case of `CC(=O)c1c(C)c2cnc(Nc3ccc(N4CCNCC4)cn3)nc2n(C2CCCC2)c1=O` [PALBOCICLIB], the inhibition in vivo at 50 mg/kg with MDA-MB-231 [4] came to 22%. For the same molecule, the figures for the IC50 with MDA-MB-231 [5] and with BT-549 [6] were 16.3 µM and 15.3 µM, respectively. Moreover, in “in vitro [7]”, the IC50 at 72 h is > 20 µM.

With `COc1cc(OC)c2c(=O)[nH]c(-c3ccc(C(=O)N4CC5(CCN(c6ncc7c(C)cc(=O)n(C8CCCC8)c7n6)CC5)C4)cc3)nc2c1`, the concentration for half-maximal inhibition (IC50) at CDK6/cyclin D3 was 36 nM; in series [10], > 1000 nM; in [11] it was > 1000 nM. The inhibition in series [12] came out at 43.4%.
